Data reported in PMC4770093, “The role of kinetic context in apparent biased agonism at GPCRs” (Nature Communications, 2016).

Assays:
[1] = system: D2R; test: Simulation of receptor occupancy over time from kon and koff; conditions: simulation with a KD concentration of each agonist
Description: We extended these studies with a Tag-lite receptor binding assay using a D2R construct with an amino-terminal SNAP tag and the fluorescently labelled agonist (±)-4′-amino-2-(N-phenethyl-N-propyl)-amino-5-hydroxytetralin (PPHT). […] The association rate of a ligand is often thought to be diffusion limited. […] Using these kinetic parameters, we performed a simulation to estimate the receptor occupancy of a KD concentration of each agonist over time (Fig. 4e).
Kinetic binding parameters of kon (a), koff (b) and t1/2 (c) were determined in a competition kinetic binding assay using a Tag-lite binding assay and the fluorescently labelled agonist PPHT as the tracer ligand (Supplementary Table 6). […] All values are expressed as mean±s.e.m. from three experiments. (e) The values of kon and koff obtained in the competition kinetic assay were used to simulate receptor occupancy over time using equation (9) and the concentration of ligand equivalent to its KD (see Supplementary Table 6).
where Ymax reflects maximum binding of a concentration of ligand and kob is determined by equation (8).

[2] = molecular target: T1, D2LR (Homo sapiens, UniProt P14416); test: Gαi1 G protein activation (BRET); format: cell-based; parameters: expressed in transfected cells; conditions: 5 minute timepoint; for Log(τ/KA) Gαi1 activation: Flp-In-CHO-D2LR; for ΔLog(τ/KA) Gαi1 activation: dopamine as reference agonist
Method: (§1) G protein activation. Flp-In-CHO cells stably expressing the D2LR were seeded at a density of 2,000,000 cells per 10-cm dish and were transfected the following day using polyethylenimine as the transfection reagent. […] Twenty-four hours after transfection, the cells were plated into 96-well CulturPlates (PerkinElmer) and grown overnight. The cells were equilibrated in Hank's balanced salt solution at 37 °C before starting the experiment. The cells were stimulated with the agonists for the indicated timeframes when the BRET readings were captured. Coelenterazine (Promega) was added at a final concentration of 5 μM at least 3 min before measurement. […] Net BRET was determined by subtraction of the vehicle control from the agonist-induced response.

[3] = molecular target: T1, D2LR; test: GαoB G protein activation (BRET); format: cell-based; parameters: expressed in transfected cells; conditions: for Emax Gao / Emax: relative to the maximal response of ropinirole; for Log(τ/KA) GαoB activation / ΔLog(τ/KA) GαoB activation: 5 minute timepoint; for Log(τ/KA) GαoB activation: Flp-In-CHO-D2LR; for ΔLog(τ/KA) GαoB activation: dopamine as reference agonist; for change in potency over time in the GαoB activation assay: time points from 2 to 90 min;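 for all read-outs here: Flp-In-CHO cells stably expressing D2LR, transiently transfected, agonist-stimulated in HBSS at 37 °C, net BRET read after coelenterazine, vehicle control subtracted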
Method: as §1

[4] = molecular target: T1, D2LR; test: xCELLigence cellular impedance (CI) assay; format: cell-based; parameters: expressed in transfected cells; conditions: for Emax CI / Emax: relative to the maximal response of ropinirole; for Log(τ/KA) Cellular impedance / ΔLog(τ/KA) Cellular impedance: 5 minute timepoint; for Log(τ/KA) Cellular impedance: Flp-In-CHO-D2LR; for ΔLog(τ/KA) Cellular impedance: dopamine as reference agonist
Method: Changes in CI on ligand stimulation were measured using the xCELLigence system (Roche Applied Science). The baseline cell index of each well of a 96-well E-plate was measured in the presence of growth medium before cell seeding. Cells were seeded at a density of 20,000 cells per well and grown for 16–20 h followed by 4 h serum starvation. Cells were treated with the ligands and the cell index values were obtained immediately after ligand stimulation every 15 s for a total time of 90 min. The retrieved cell index values were then normalized by dividing the cell index at the time of ligand addition followed by subtraction of the vehicle control at each time point.

[5] = molecular target: T1, D2LR; test: Quantification of biased agonism between pathways (operational model, LogBias); format: cell-based; parameters: expressed in transfected cells; conditions: for LogBias Gαi1 – CI / LogBias Gαi1 – GαoB / LogBias Gαi1 – cAMP / LogBias GαoB – CI / LogBias GαoB – cAMP / LogBias cAMP – CI / LogBias CI – pERK1/2 / LogBias Gαi1 – pERK1/2 / LogBias GαoB – pERK1/2 / LogBias cAMP – pERK1/2 / LogBias β-arr2 – CI / LogBias β-arr2 – Gαi1 / LogBias β-arr2 – GαoB / LogBias β-arr2 – cAMP / LogBias β-arr2 – pERK1/2: 5 minute timepoint, dopamine as reference agonist
Description: where Top and Bottom represent the maximal and minimal asymptote of the dose–response curve, [A] is the molar concentration of agonist and EC50 is the molar concentration of agonist required to give a response half way between bottom and top. Dose–response data were fitted to the following form of the operational model of agonism[12] to allow the quantification of biased agonism
where Em is the maximal possible response of the system, Basal is the basal level of response, KA represents the equilibrium dissociation constant of the agonist (A) and τ is an index of the signalling efficacy of the agonist that is defined as RT/KE, where RT is the total number of receptors and KE is the coupling efficiency of each agonist-occupied receptor, and n is the slope of the transducer function that links occupancy to response. The analysis assumes that the transduction machinery used for a given cellular pathway are the same for all agonists, such that the Em and transducer slope (n) are shared between agonists. Data for all compounds for each pathway were fit globally, to determine values of KA and τ. Biased agonism was quantified as previously described. […] The relative bias can then be calculated for each agonist at the two different signalling pathways by subtracting the Δlog(τ/KA) of one pathway from the other to give a ΔΔlog(τ/KA) value, which is a measure of bias. […] All affinity (pKi or pKA), potency (pEC50) and transduction ratio (log(τ/KA)) parameters were estimated as logarithms. When fold changes in bias are described, this was calculated by converting values of ΔΔlog(τ/KA) to the corresponding antilog value. […] Thus, as the application of t-tests and analyses of variance assume Gaussian distribution, estimating the parameters as logarithms allows valid statistical comparison. All results are expressed as the mean±s.e.m. As such, we performed a Brown–Forsythe test (Graphpad prism 6) to assure ourselves of equal variance when such parameters are compared.

[6] = molecular target: T1, D2LR; test: β-Arrestin-2 recruitment (BRET); format: cell-based; parameters: expressed in transfected cells; conditions: 5 minute timepoint; for Log(τ/KA) β-arrestin2: ND = no agonist activity detected; for ΔLog(τ/KA) β-arrestin2: dopamine as reference agonist
Method: β-Arrestin-2 recruitment. […] To assess β-arrestin-2 recruitment to the D2LR, the cells were transfected with 1 μg Rluc8-tagged D2LR, 4 μg YFP–β-arrestin-2 and 2 μg GRK2. […] The cells were incubated with Coelenterazine (Promega) at a final concentration of 5 μM for 5 min, followed by stimulation with the agonists for an additional 5 min before the BRET readings were captured.

T1 sequence (P14416 whole entry): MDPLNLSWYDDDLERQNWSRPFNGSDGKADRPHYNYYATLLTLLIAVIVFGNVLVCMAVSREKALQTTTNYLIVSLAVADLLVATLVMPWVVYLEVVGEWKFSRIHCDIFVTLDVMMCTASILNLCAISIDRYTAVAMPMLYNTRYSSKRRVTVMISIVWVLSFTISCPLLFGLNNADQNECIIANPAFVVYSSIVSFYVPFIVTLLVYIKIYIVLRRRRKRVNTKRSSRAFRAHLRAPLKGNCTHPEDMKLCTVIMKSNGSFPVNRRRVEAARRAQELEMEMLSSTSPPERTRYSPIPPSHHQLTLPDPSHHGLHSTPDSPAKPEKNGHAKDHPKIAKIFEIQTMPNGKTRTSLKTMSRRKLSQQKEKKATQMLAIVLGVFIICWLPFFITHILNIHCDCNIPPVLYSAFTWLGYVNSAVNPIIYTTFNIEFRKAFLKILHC

## CCCN1CCC[C@@H](c2cccc(O)c2)C1 [S-3PPP, (S)-(-)-3-(3-hydroxyphenyl)-N-propylpiperidine]
[1]
  time to maximal receptor occupancy: ≤ 1 min
[2]
  Log(τ/KA) Gαi1 activation: 6.60 ± 0.12
  ΔLog(τ/KA) Gαi1 activation: -0.58 ± 0.15
[3]; 2 min
  Emax Gao: 64 ± 5.6
[3]; 5 min
  Emax Gao: 68 ± 3.0
[3]
  Log(τ/KA) GαoB activation: 6.40 ± 0.11
  ΔLog(τ/KA) GαoB activation: -0.84 ± 0.14
  change in potency over time in the GαoB activation assay: twofold
[3]; 10 min
  Emax Gao: 73 ±3.1
[3]; 15 min
  Emax Gao: 76 ± 2.2
[3]; 30 min
  Emax Gao: 74 ± 3.0
[3]; 45 min
  Emax Gao: 72 ± 2.2
[3]; 60 min
  Emax Gao: 72 ± 2.3
[3]; 90 min
  Emax Gao: 77 ± 2.6
[4]; 2 min
  Emax CI: 46 ± 3.7
[4]; 5 min
  Emax CI: 46 ± 3.0
[4]
  Log(τ/KA) Cellular impedance: 7.34 ± 0.10
  ΔLog(τ/KA) Cellular impedance: -1.22 ± 0.11
[4]; 10 min
  Emax CI: 36 ± 2.5
[4]; 15 min
  Emax CI: 32 ± 2.6
[4]; 30 min
  Emax CI: 26 ± 2.5
[4]; 45 min
  Emax CI: 23 ± 2.5
[4]; 60 min
  Emax CI: 21 ± 2.5
[4]; 75 min
  Emax CI: 19 ± 2.4
[4]; 90 min
  Emax CI: 17 ± 2.3
[5]; 5 min, reference dopamine
  bias between the activation of Gαi1 and all other assays apart from the activation of GαoB: less than tenfold
[5]
  LogBias Gαi1 – CI: 0.64 ± 0.19
  LogBias Gαi1 – GαoB: 0.27 ± 0.21
  LogBias Gαi1 – cAMP: 0.83 ± 0.17
  LogBias GαoB – CI: 0.37 ± 0.18
  LogBias GαoB – cAMP: 0.56 ± 0.16
  LogBias cAMP – CI: -0.19 ± 0.13

## O=c1[nH]c2cccc(N3CCN(Cc4cccc(-c5ccccc5)c4)CC3)c2o1 [Bifeprunox, bifeprunox]
[1]
  time to maximal receptor occupancy: > 90 min
[6]
  Log(τ/KA) β-arrestin2: 5.75 ± 0.16
  ΔLog(τ/KA) β-arrestin2: -0.58 ± 0.21
[2]
  Log(τ/KA) Gαi1 activation: 8.60 ± 0.11
  ΔLog(τ/KA) Gαi1 activation: 1.43 ± 0.14
[3]; 2 min
  EC50: 52.5 nM
  Emax: 94 ± 3.8%
[3]; 5 min
  EC50: 26.9 nM
  Emax: 80%
[3]
  Log(τ/KA) GαoB activation: 7.50 ± 0.10
  ΔLog(τ/KA) GαoB activation: 0.26 ± 0.13
[3]; 10 min
  EC50: 12.9 nM
  Emax: 77%
[3]; 15 min
  EC50: 7.59 nM
  Emax: 79%
[3]; 30 min
  EC50: 4.07 nM
  Emax: 87 ± 2.5%
[3]; 45 min
  EC50: 3.02 nM
  Emax: 88 ± 2.4%
[3]; 60 min
  EC50: 3.24 nM
[3]; 75 min
  EC50: 2.19 nM
[3]; 90 min
  EC50: 2.14 nM
  Emax: 90 ± 3.2%
[4]; 2 min
  EC50: 16.2 nM
  Emax: 61 ± 4%
[4]; 5 min
  EC50: 3.47 nM
  Emax: 67 ± 3%
[4]
  Log(τ/KA) Cellular impedance: 8.30 ± 0.07
  ΔLog(τ/KA) Cellular impedance: -0.25 ± 0.08
[4]; 10 min
  EC50: 1.58 nM
  Emax: 57 ± 2.5%
[4]; 15 min
  EC50: 0.912 nM
  Emax: 58 ± 2.8%
[4]; 30 min
  EC50: 0.55 nM
  Emax: 53 ± 3.1%
[4]; 45 min
  EC50: 0.339 nM
  Emax: 51 ± 2.3%
[4]; 60 min
  EC50: 0.263 nM
  Emax: 49%
[4]; 75 min
  EC50: 0.229 nM
  Emax: 46%
[4]; 90 min
  EC50: 0.2 nM
  Emax: 44%
[5]
  LogBias CI – pERK1/2: 0.99 ± 0.14
  LogBias Gαi1 – CI: 1.68 ± 0.16
  LogBias Gαi1 – GαoB: 1.17 ± 0.19
  LogBias Gαi1 – cAMP: 1.61 ± 0.16
  LogBias Gαi1 – pERK1/2: 2.67 ± 0.18
  LogBias GαoB – CI: 0.51 ± 0.15
  LogBias GαoB – cAMP: 0.43 ± 0.14
  LogBias GαoB – pERK1/2: 1.50 ± 0.17
  LogBias cAMP – CI: 0.08 ± 0.11
  LogBias cAMP – pERK1/2: 1.06 ± 0.13
  LogBias β-arr2 – CI: -0.33 ± 0.22
  LogBias β-arr2 – Gαi1: -2.01 ± 0.25
  LogBias β-arr2 – GαoB: -0.84 ± 0.24
  LogBias β-arr2 – cAMP: -0.41 ± 0.22
  LogBias β-arr2 – pERK1/2: 0.66 ± 0.24

## CN1CCN(c2cccc3[nH]c(=O)oc23)CC1 [Pardoprunox, pardoprunox]
[1]
  time to maximal receptor occupancy: ≤ 1 min
[6]
  Log(τ/KA) β-arrestin2: 6.80 ± 0.29
  ΔLog(τ/KA) β-arrestin2: 0.47 ± 0.32
[2]
  Log(τ/KA) Gαi1 activation: 8.10 ± 0.13
  ΔLog(τ/KA) Gαi1 activation: 0.93 ± 0.16
[3]; 2 min
  pEC50 Gao: 7.78
  Emax Gao: 82 ± 4.5
[3]; 5 min
  pEC50 Gao: 7.77
  Emax Gao: 79 ± 4.3
[3]
  Log(τ/KA) GαoB activation: 7.70 ± 0.10
  ΔLog(τ/KA) GαoB activation: 0.45 ± 0.13
  change in potency over time in the GαoB activation assay: sixfold
[3]; 10 min
  pEC50 Gao: 8.00
  Emax Gao: 76 ± 3.2
[3]; 15 min
  pEC50 Gao: 8.21
  Emax Gao: 81 ± 2.8
[3]; 30 min
  pEC50 Gao: 8.70
  Emax Gao: 84 ± 3.1
[3]; 45 min
  pEC50 Gao: 8.71
  Emax Gao: 85 ± 3.1
[3]; 60 min
  pEC50 Gao: 8.64
  Emax Gao: 86 ± 2.7
[3]; 75 min
  pEC50 Gao: 8.34
  Emax Gao: 80 ± 4.9
[3]; 90 min
  pEC50 Gao: 8.58
  Emax Gao: 87 ± 2.5
[4]; 2 min
  pEC50 CI: 9.30
  Emax CI: 75 ± 3.6
[4]; 5 min
  pEC50 CI: 9.41
  Emax CI: 76 ± 2.7
[4]
  Log(τ/KA) Cellular impedance: 9.29 ± 0.06
  ΔLog(τ/KA) Cellular impedance: 0.74 ± 0.07
[4]; 10 min
  pEC50 CI: 9.22
  Emax CI: 70 ± 2.2
[4]; 15 min
  pEC50 CI: 9.20
  Emax CI: 67 ± 2.5
[4]; 30 min
  pEC50 CI: 9.06
  Emax CI: 62 ± 2.9
[4]; 45 min
  pEC50 CI: 9.02
  Emax CI: 59 ± 2.4
[4]; 60 min
  pEC50 CI: 8.95
  Emax CI: 57 ± 2.2
[4]; 75 min
  pEC50 CI: 8.87
  Emax CI: 54 ± 2.1
[4]; 90 min
  pEC50 CI: 8.80
  Emax CI: 52 ± 2.0
[5]
  LogBias CI – pERK1/2: 0.24 ± 0.12
  LogBias Gαi1 – CI: 0.19 ± 0.18
  LogBias Gαi1 – GαoB: 0.48 ± 0.21
  LogBias Gαi1 – cAMP: 0.35 ± 0.17
  LogBias Gαi1 – pERK1/2: 0.43 ± 0.19
  LogBias GαoB – CI: -0.29 ± 0.15
  LogBias GαoB – cAMP: -0.13 ± 0.15
  LogBias GαoB – pERK1/2: -0.05 ± 0.16
  LogBias cAMP – CI: -0.16 ± 0.10
  LogBias cAMP – pERK1/2: 0.08 ± 0.12
  LogBias β-arr2 – CI: -0.28 ± 0.33
  LogBias β-arr2 – Gαi1: -0.47 ± 0.36
  LogBias β-arr2 – GαoB: 0.01 ± 0.34
  LogBias β-arr2 – cAMP: -0.12 ± 0.33
  LogBias β-arr2 – pERK1/2: -0.04 ± 0.33
